Measured values published in ChEMBL document CHEMBL1125524, “Adenosine A1 antagonists. 2. Structure-activity relationships on diuretic activities and protective effects against acute renal failure” (J Med Chem, 1992).

Key:
Rattus norvegicus [1] = test: Serum creatinine concentration measured after intraperitoneal administration of 10 mg/kg of compound to rats(vehicle 3.38+/-0.29); type: functional
Rattus norvegicus [2] = test: Effect on urinary excretion potassium and sodium after oral administration of 25 mg/kg to rats(potassium and sodium excretion in control rat is 0.209+/-0.007); type: functional, Urine
Rattus norvegicus [3] = test: Ratio of urinary excretion value (urinary volume) in treated rats to that in control rats, at a peroral dose of 25 mg/Kg; type: functional, Urine
Rattus norvegicus [4] = test: Ratio of sodium ion/potassium ion concentration in treated rats to that in control rats, at a peroral dose of 25 mg/Kg; type: functional
Rattus norvegicus [5] = test: Ratio of urinary excretion value (Na+ concentration) in treated rats to that in control rats, at a peroral dose of 25 mg/Kg; type: functional, Urine
Rattus norvegicus [6] = test: Percent inhibition of serum creatinine by the compound given as ratio of Cr value in treated to vehicle treated ones after intraperitoneal administration of 10 mg/kg of compound to rats(vehicle 3.38+/-0.29); type: functional; conditions: ip
Rattus norvegicus [7] = test: Oral diuretic activity was measured after oral administration of 25 mg/kg to rats(control volume is 1.02+/-0.02); type: functional, Urine
Rattus norvegicus [8] = test: Urea nitrogen concentration measured after intraperitoneal administration of 10 mg/kg of compound to rats(vehicle 114+/-8.7); type: functional
Rattus norvegicus [9] = test: Percent inhibition of Urea nitrogen by the compound given as ratio of UN value in treated to vehicle treated ones after intraperitoneal administration of 10 mg/kg of compound to rats(vehicle 114+/-8.7); type: functional; conditions: ip
Adenosine receptor A1 = molecular target: T1, Adenosine receptor A1 (Cavia porcellus, UniProt P47745)
T1 sequence (P47745 whole entry): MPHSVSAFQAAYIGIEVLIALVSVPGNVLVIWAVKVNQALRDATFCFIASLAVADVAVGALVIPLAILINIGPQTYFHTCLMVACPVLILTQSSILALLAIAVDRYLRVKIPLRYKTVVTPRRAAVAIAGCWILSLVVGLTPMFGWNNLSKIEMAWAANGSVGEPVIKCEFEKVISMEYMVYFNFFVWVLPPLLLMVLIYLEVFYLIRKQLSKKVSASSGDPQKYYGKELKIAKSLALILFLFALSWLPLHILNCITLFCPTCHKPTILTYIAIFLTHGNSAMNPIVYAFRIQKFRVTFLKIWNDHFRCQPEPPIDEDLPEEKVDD
Description: Binding affinity against adenosine A1 receptor in guinea pig forebrain membranes using N6-[3H]cyclohexyladenosine as radioligand

Adenosine A2 receptor [10] = molecular target: T2, Adenosine A2 receptor (Rattus norvegicus, UniProt P29276+P30543)
Description: Binding affinity towards adenosine A2 receptor in rat striatal membranes using N-[3H]-ethyladenosin-5''-uronamide as radioligand

Adenosine A2 receptor [11] = molecular target: T2, Adenosine A2 receptor; remark: listed apart in the source
Rattus norvegicus [12] = test: Serum creatinine concentration measured after intraperitoneal administration of 1 mg/kg of compound to rats(vehicle 3.62+/-0.52); type: functional
Rattus norvegicus [13] = test: Serum creatinine concentration measured after intraperitoneal administration of 10 mg/kg of compound to rats(vehicle 3.93+/-0.45); type: functional
Rattus norvegicus [14] = test: Effect on urinary excretion potassium and sodium after oral administration of 0.4 mg/kg to rats(potassium and sodium excretion in control rat is 0.191+/-0.020); type: functional, Urine
Rattus norvegicus [15] = test: Percent inhibition of serum creatinine by the compound given as ratio of Cr value in treated to vehicle treated ones after intraperitoneal administration of 10 mg/kg of compound to rats(vehicle 3.93+/-0.45); type: functional; conditions: ip
Rattus norvegicus [16] = test: Ratio of urinary excretion value (urinary volume) in treated rats to that in control rats, at a peroral dose of 0.1 mg/Kg; type: functional, Urine
Rattus norvegicus [17] = test: Ratio of urinary excretion value (urinary volume) in treated rats to that in control rats, at a peroral dose of 0.4 mg/Kg; type: functional, Urine
Rattus norvegicus [18] = test: Ratio of urinary excretion value (urinary volume) in treated rats to that in control rats, at a peroral dose of 1.6 mg/Kg; type: functional, Urine
Rattus norvegicus [19] = test: Percent inhibition of serum creatinine by the compound given as ratio of Cr value in treated to vehicle treated ones after intraperitoneal administration of 1 mg/kg of compound to rats(vehicle 3.62+/-0.52); type: functional; conditions: ip
Rattus norvegicus [20] = test: Oral diuretic activity was measured after oral administration of 0.1 mg/kg to rats(control volume is 1.15+/-0.12); type: functional, Urine
Rattus norvegicus [21] = test: Ratio of sodium ion/potassium ion concentration in treated rats to that in control rats, at a peroral dose of 0.1 mg/Kg; type: functional
Rattus norvegicus [22] = test: Ratio of sodium ion/potassium ion concentration in treated rats to that in control rats, at a peroral dose of 0.4 mg/Kg; type: functional
Rattus norvegicus [23] = test: Ratio of sodium ion/potassium ion concentration in treated rats to that in control rats, at a peroral dose of 1.6 mg/Kg; type: functional
Rattus norvegicus [24] = test: Ratio of urinary excretion value (Na+ concentration) in treated rats to that in control rats, at a peroral dose of 0.1 mg/Kg; type: functional, Urine
Rattus norvegicus [25] = test: Ratio of urinary excretion value (Na+ concentration) in treated rats to that in control rats, at a peroral dose of 0.4 mg/Kg; type: functional, Urine
Rattus norvegicus [26] = test: Ratio of urinary excretion value (Na+ concentration) in treated rats to that in control rats, at a peroral dose of 1.6 mg/Kg; type: functional, Urine
Rattus norvegicus [27] = test: Urea nitrogen concentration measured after intraperitoneal administration of 1 mg/kg of compound to rats(vehicle 105.2+/-14.9); type: functional
Rattus norvegicus [28] = test: Oral diuretic activity was measured after oral administration of 0.4 mg/kg to rats(control volume is 1.15+/-0.17); type: functional, Urine
Rattus norvegicus [29] = test: Oral diuretic activity was measured after oral administration of 1.6 mg/kg to rats(control volume is 0.96+/-0.09); type: functional, Urine
Rattus norvegicus [30] = test: Urea nitrogen concentration measured after intraperitoneal administration of 10 mg/kg of compound to rats(vehicle 129.1+/-14.5); type: functional
Rattus norvegicus [31] = test: Percent inhibition of Urea nitrogen by the compound given as ratio of UN value in treated to vehicle treated ones after intraperitoneal administration of 1 mg/kg of compound to rats(vehicle 105.2+/-14.9); type: functional; conditions: ip
Rattus norvegicus [32] = test: Percent inhibition of Urea nitrogen by the compound given as ratio of UN value in treated to vehicle treated ones after intraperitoneal administration of 10 mg/kg of compound to rats(vehicle 129.1+/-14.5); type: functional; conditions: ip
Rattus norvegicus [33] = test: Effect on urinary excretion potassium and sodium after oral administration of 1.6 mg/kg to rats(potassium and sodium excretion in control rat is 0.147+/-0.015); type: functional, Urine
Rattus norvegicus [34] = test: Effect on urinary excretion potassium and sodium after oral administration of 0.1 mg/kg to rats(potassium and sodium excretion in control rat is 0.133+/-0.022); type: functional, Urine
Rattus norvegicus [35] = test: Serum creatinine concentration measured after intraperitoneal administration of 1 mg/kg of compound to rats(vehicle 4.70+/-0.17); type: functional
Rattus norvegicus [36] = test: Serum creatinine concentration measured after intraperitoneal administration of 10 mg/kg of compound to rats(vehicle 4.41+/-0.16); type: functional
Rattus norvegicus [37] = test: Percent inhibition of serum creatinine by the compound given as ratio of Cr value in treated to vehicle treated ones after intraperitoneal administration of 1 mg/kg of compound to rats(vehicle 4.70+/-0.17); type: functional; conditions: ip
Rattus norvegicus [38] = test: Percent inhibition of serum creatinine by the compound given as ratio of Cr value in treated to vehicle treated ones after intraperitoneal administration of 10 mg/kg of compound to rats(vehicle 4.41+/-0.16); type: functional; conditions: ip
Rattus norvegicus [39] = test: Urea nitrogen concentration measured after intraperitoneal administration of 1 mg/kg of compound to rats(vehicle 154.2+/-5); type: functional
Rattus norvegicus [40] = test: Ratio of urinary excretion value (Na+ concentration) in treated rats to that in control rats, at a peroral dose of 6.25 mg/Kg; type: functional, Urine
Rattus norvegicus [41] = test: Effect on urinary excretion potassium and sodium after oral administration of 25 mg/kg to rats(potassium and sodium excretion in control rat is 0.180+/-0.014); type: functional, Urine
Rattus norvegicus [42] = test: Oral diuretic activity was measured after oral administration of 25 mg/kg to rats(control volume is 1.21+/-0.08); type: functional, Urine
Rattus norvegicus [43] = test: Urea nitrogen concentration measured after intraperitoneal administration of 10 mg/kg of compound to rats(vehicle 145.1+/-7.4); type: functional
Rattus norvegicus [44] = test: Percent inhibition of Urea nitrogen by the compound given as ratio of UN value in treated to vehicle treated ones after intraperitoneal administration of 10 mg/kg of compound to rats(vehicle 145.1+/-7.4); type: functional; conditions: ip
Rattus norvegicus [45] = test: Percent inhibition of Urea nitrogen by the compound given as ratio of UN value in treated to vehicle treated ones after intraperitoneal administration of 1 mg/kg of compound to rats(vehicle 154.2+/-5); type: functional; conditions: ip
Rattus norvegicus [46] = test: Ratio of urinary excretion value (urinary volume) in treated rats to that in control rats, at a peroral dose of 6.25 mg/Kg; type: functional, Urine

Question: What does the source list for `Nc1nc2ccc(Cl)cc2n2c(-c3ccccc3)nnc12`?
Answer: Cr (Rattus norvegicus [1]): 4.58 mg/dL; Na (Rattus norvegicus [2]): 0.186 m equiv 6hr-1 100g-1; T/C (Rattus norvegicus [3]): 0.85; Na+/K+ (Rattus norvegicus [4]): 1.05; T/C (Rattus norvegicus [5]): 0.89; inhibition in vivo at 10 mg/kg (Rattus norvegicus [6]): -36%; Urine volume (Rattus norvegicus [7]): 0.87 ml 6hr-1 100g-1; UN (Rattus norvegicus [8]): 137.8 mg/dL; inhibition in vivo at 10 mg/kg (Rattus norvegicus [9]): -21%; Ki (Adenosine receptor A1): 6900 nM; Ki (Adenosine A2 receptor [10]): 21 nM; Ki (Adenosine A2 receptor [11]): 5.1 nM

Question: What does the source list for `CCn1c(=O)c2nc(C(C3CC3)C3CC3)[nH]c2n(CC)c1=O`?
Answer: Cr (Rattus norvegicus [12]): 3.24 mg/dL; Cr (Rattus norvegicus [13]): 1.74 mg/dL; Na (Rattus norvegicus [14]): 0.433 m equiv 6hr-1 100g-1; inhibition in vivo at 10 mg/kg (Rattus norvegicus [15]): 56%; T/C (Rattus norvegicus [16]): 0.72; T/C (Rattus norvegicus [17]): 1.84; T/C (Rattus norvegicus [18]): 1.71; inhibition in vivo at 1 mg/kg (Rattus norvegicus [19]): 10%; Urine volume (Rattus norvegicus [20]): 0.83 ml 6hr-1 100g-1; Na+/K+ (Rattus norvegicus [21]): 1.37; Na+/K+ (Rattus norvegicus [22]): 1.63; Na+/K+ (Rattus norvegicus [23]): 1.71; T/C (Rattus norvegicus [24]): 0.85; T/C (Rattus norvegicus [25]): 2.27; T/C (Rattus norvegicus [26]): 2.12; UN (Rattus norvegicus [27]): 98.5 mg/dL; Urine volume (Rattus norvegicus [28]): 2.11 ml 6hr-1 100g-1; Urine volume (Rattus norvegicus [29]): 1.72 ml 6hr-1 100g-1; UN (Rattus norvegicus [30]): 50.6 mg/dL; inhibition in vivo at 1 mg/kg (Rattus norvegicus [31]): 6%; inhibition in vivo at 10 mg/kg (Rattus norvegicus [32]): 61%; Na (Rattus norvegicus [33]): 0.312 m equiv 6hr-1 100g-1; Na (Rattus norvegicus [34]): 0.113 m equiv 6hr-1 100g-1; Ki (Adenosine A2 receptor [11]): 690 nM

Question: For `Cn1c(=O)c2c(ncn2C)n(C)c1=O` [CAFFEINE], which Cr (Rattus norvegicus [35]) is on record?
Answer: 3.68 mg/dL

Question: And the Cr (Rattus norvegicus [36])?
Answer: 2.85 mg/dL

Question: What about the inhibition in vivo at 1 mg/kg (Rattus norvegicus [37]) of the same compound?
Answer: 22%

Question: And the inhibition in vivo at 10 mg/kg (Rattus norvegicus [38])?
Answer: 35%

Question: And the T/C (Rattus norvegicus [3])?
Answer: 1.68

Question: And the UN (Rattus norvegicus [39])?
Answer: 125.7 mg/dL

Question: What about the “Na+/K+” value (Rattus norvegicus [4]) of the same compound?
Answer: 1.28

Question: And the T/C (Rattus norvegicus [5])?
Answer: 1.55

Question: And the T/C (Rattus norvegicus [40])?
Answer: 1.1

Question: What about the Na (Rattus norvegicus [41]) of the same compound?
Answer: 0.28 m equiv 6hr-1 100g-1

Question: And the Urine volume (Rattus norvegicus [42])?
Answer: 1.84 ml 6hr-1 100g-1

Question: What about the UN (Rattus norvegicus [43]) of the same compound?
Answer: 109 mg/dL

Question: And the inhibition in vivo at 10 mg/kg (Rattus norvegicus [44])?
Answer: 25%

Question: And the inhibition in vivo at 1 mg/kg (Rattus norvegicus [45])?
Answer: 18%

Question: What about the T/C (Rattus norvegicus [46]) of the same compound?
Answer: 0.92
